Reference: patent publication US20200056220A1, “GENERATION OF DATA FOR USE WITH ANTIMICROBIALS” (GeneFluidics, Inc., priority 2018, published 2020)
Read-outs that look alike come from different tables or passages of the source.

System: E. coli
Conditions: for average current signal of the four sensors, base susceptibility test: 0 minutes susceptibility culture time, sample diluted to 5×10^5 CFU/mL, −250 mV; for average current signal of the four sensors, base susceptibility test / current of the 60 minute test sample: 0.4 μg antibiotic in 100 μL Mueller-Hinton broth
Description: In an antimicrobial susceptibility testing phase, a local antibiogram can be used to identify antibiotics for treating the pathogen identified in Example 1. […] Susceptibility cultures can be started. […] A second susceptibility culture including imipenem can be generated by diluting a portion of the raw sample to 5×10^5 CFU/mL and distributing the result into a vial with a 0.4 μg of a lyophilized version of the imipenem and 100 μL of culture media (Mueller-Hinton broth).
The imipenem susceptibility test sample can be used to generate an imipenem test sample shortly after the imipenem susceptibility culture was started. The Proteus automated system can begin to prepare a test sample from the imipenem susceptibility test sample by transferring 30 μL of the imipenem susceptibility test sample to a microcentrifuge vial in the machine. Then, the Proteus automated system can add 12 μL of 1M NaOH to the 30 μL sample. This sample can be incubated at room temperature for 2 minutes. The Proteus system can then add 8 μL of 1M HCl. Ten microliters of the result can be placed on each of 4 sensors of the 16 available on the GeneFluidics, Inc. 16X EC chip. This chip can be incubated in the Proteus machine for 11 minutes at 43° C. After completion of this incubation, the chip can be washed and dried by Proteus. Ten microliters of 0.5 U/mL anti-fluorescein horseradish peroxidase (HRP) Fab fragments (Roche; diluted in 1.0% casein in 1 M phosphate-buffered saline, pH 7.4) can be injected into the sensor chambers and incubated for 2 minutes at 25° C. The final reagent addition can be 40 μL of 3,3′,5,5′-tetramethylbenzidine (TMB)-H2O2 solution (K-Blue Low Activity TMB Substrate; Neogen, Lexington Ky.) and incubated for 30 seconds to provide the imipenem test sample.
Then, the Proteus automated system can add 12 μL of 1M NaOH to the 30 μL sample. This sample can be incubated at room temperature for 2 minutes. The Proteus system can then add 8 μL of 1M HCl. Ten microliters of the result can be placed on each of 4 sensors of the 16 available on the GeneFluidics, Inc. 16X EC chip. This chip can be incubated in the Proteus machine for 11 minutes at 43° C. After completion of this incubation, the chip can be washed and dried by Proteus. Ten microliters of 0.5 U/mL anti-fluorescein horseradish peroxidase (HRP) Fab fragments (Roche; diluted in 1.0% casein in 1 M phosphate-buffered saline, pH 7.4) can be injected into the sensor chambers and incubated for 2 minutes at 25° C.
The test samples were tested for concentration using a test that served as the base susceptibility test or the zero susceptibility culture time test. For instance, a Helios potentiostat from GeneFluidics, Inc. was connected to the electrodes of the sensor chips and a potential of −250 mV was applied across the electrodes for one minute. During this time, the current generated by the electrochemical reaction was measured by the potentiostat. The average current measured in the final 10 seconds of the potentiostat reading constituted the final result of the assay.
The process that was used to prepare the test samples for the base susceptibility tests was to be used to generate test samples from each of the susceptibility cultures at 60 minutes, and 90 minutes. Each of the test samples were tested as described above.

[1] = 60 minutes susceptibility culture time

Row | SMILES | average current signal of the four sensors, base susceptibility test | reported result (resistant / susceptible to the concentration of antimicrobial in the culture) (0.4 μg antibiotic in 100 μL culture media, final report when culture was stopped) | increase over the current level from base susceptibility test [1] | current of the 60 minute test sample [1] | increase over the current level from base susceptibility test (90 minutes susceptibility culture time)
1 | O=C(O)c1cn(C2CC2)c2cc(N3CCNCC3)c(F)cc2c1=O [ciprofloxacin] | 30 nA | susceptible | 0% | 30 nA | 0%
2 | C[C@@H](O)[C@H]1C(=O)N2C(C(=O)O)=C(SCCN=CN)C[C@H]12 [imipenem] | 30 nA | – | 500% | 180 nA | –
